Laboratory results from patent publication US20260216170A1, “TETRAHYDROISOQUINOLINE HETEROBIFUNCTIONAL BCL-XL DEGRADERS” (Treeline Biosciences, Inc., priority 2023, published 2026).

Molecular target: T1, Human BCL-XL protein (N-terminal HiBiT tagged BCL-XL expressed in HT1080 cells) (Homo sapiens, UniProt Q07817)
T1 construct: expressed in transfected cells; host or cells: HT-1080 (ATCC CCL-121), stably transduced with lentivirus pLV-UBC-N-HiBiT-BCL-XL-PGK-puro and selected with puromycin
Test: HiBiT Based Degradation Assay
Format: cell-based
Settings: 24 hours incubation; for DC50: BCL-XL degradation, HT1080 cells expressing N-HiBiT-BCL-XL, normalized with DMSO control, geometric mean for multiple data points, read-out: EC50 (24 h); for Ymin (24 h): bottom of BCL-XL degradation curve (remaining HiBiT-BCL-XL signal vs DMSO control), HT1080 cells
In short: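 BCL-XL degradation was read as Nano-Glo HiBiT lytic luminescence relative to DMSO after a 24 h compound treatment of HT1080 cells carrying stably integrated N-HiBiT-BCL-XL. EC50 values come from four-parameter logistic curves, with the hook-curve minimum fixed as bottom, and are geometric means where tested repeatedly.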

T1 sequence (Q07817 whole entry): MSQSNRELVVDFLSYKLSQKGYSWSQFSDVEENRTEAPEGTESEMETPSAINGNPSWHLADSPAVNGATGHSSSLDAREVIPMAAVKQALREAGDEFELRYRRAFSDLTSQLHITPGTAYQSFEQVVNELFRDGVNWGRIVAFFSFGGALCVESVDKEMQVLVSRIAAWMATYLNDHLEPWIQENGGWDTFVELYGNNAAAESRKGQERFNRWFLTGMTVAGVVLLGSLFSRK

SMILES | DC50 [nM] | Ymin (24 h)
COc1c(NC(=O)CN2CCC3(CC2)CC(Oc2cccc(-c4ccc(N5CCc6ccnc(C(=O)Nc7nc8ccccc8s7)c6C5)nc4C(=O)O)c2C(F)(F)F)C3)ccc2c(C3CCC(=O)NC3=O)nn(C)c12 (centres unmarked) [Compound 165, 6-(8-(benzo[d]thiazol-2-ylcarbamoyl)-3,4-dihydro-2,7-naphthyridin-2(1H)-yl)-3-(3-((7-(2-((3-(2,6-dioxopiperidin-3-yl)-7-methoxy-1-methyl-1H-indazol-6-yl)amino)-2-oxoethyl)-7-azaspiro[3.5]nonan-2-yl)oxy)-2-(trifluoromethyl)phenyl)picolinic acid] | < 10 | B (30% ≤ Ymin < 50%)
Cn1nc(C2CCC(=O)NC2=O)c2ccc(NC(=O)CN3CCC4(CC3)CC(Oc3cccc(-c5ccc(N6CCc7cccc(C(=O)Nc8nc9ccccc9s8)c7C6)nc5C(=O)O)c3C(F)(F)F)C4)c(F)c21 (centres unmarked) [Compound 188, 6-(8-(benzo[d]thiazol-2-ylcarbamoyl)-3,4-dihydroisoquinolin-2(1H)-yl)-3-(3-((7-(2-((3-(2,6-dioxopiperidin-3-yl)-7-fluoro-1-methyl-1H-indazol-6-yl)amino)-2-oxoethyl)-7-azaspiro[3.5]nonan-2-yl)oxy)-2-(trifluoromethyl)phenyl)picolinic acid] | < 10 | B (30% ≤ Ymin < 50%)
Cc1cc(OC[C@H]2C[C@H]2C2CCN(CC(=O)Nc3ccc4c(C5CCC(=O)NC5=O)nn(C)c4c3)CC2)ccc1-c1ccc(N2CCc3cccc(C(=O)Nc4nc5ccccc5s4)c3C2)nc1C(=O)O (single isomer, unassigned) [Compound 1003c] | < 10 | A (Ymin < 30%)
Cn1nc(C2CCC(=O)NC2=O)c2ccc(NC(=O)CN3CCC4(CC3)CC(Oc3cccc(-c5ccc(N6CCc7ccnc(C(=O)Nc8nc9ccccc9s8)c7C6)nc5C(=O)O)c3C(F)(F)F)C4)nc21 (centres unmarked) [Compound 202, 6-(8-(benzo[d]thiazol-2-ylcarbamoyl)-3,4-dihydro-2,7-naphthyridin-2(1H)-yl)-3-(3-((7-(2-((3-(2,6-dioxopiperidin-3-yl)-1-methyl-1H-pyrazolo[3,4-b]pyridin-6-yl)amino)-2-oxoethyl)-7-azaspiro[3.5]nonan-2-yl)oxy)-2-(trifluoromethyl)phenyl)picolinic acid] | < 10 | B (30% ≤ Ymin < 50%)
Cc1cc(OC2CCC3(CC2)CCN(CC(=O)Nc2ccc4c(C5CCC(=O)NC5=O)nn(C)c4c2)CC3)ccc1-c1ccc(N2CCc3cccc(C(=O)Nc4nc5ccccc5s4)c3C2)nc1C(=O)O (centres unmarked) [Compound 221] | < 10 | A (Ymin < 30%)
Cn1nc(C2CCC(=O)NC2=O)c2ccc(NC(=O)CN3CCC4(CC3)CC(COc3cccc(-c5ccc(N6CCc7cccc(C(=O)Nc8nc9ccccc9s8)c7C6)nc5C(=O)O)c3C(F)(F)F)C4)nc21 (centres unmarked) [Compound 147] | 10 to 100 | B (30% ≤ Ymin < 50%)
COc1c(NC(=O)CN2CCC(CCCOc3ccc(-c4ccc(N5CCc6cccc(C(=O)Nc7nc8ccccc8s7)c6C5)nc4C(=O)O)c(F)c3)CC2)ccc2c(C3CCC(=O)NC3=O)nn(C)c12 (centres unmarked) [Compound 201] | 10 to 100 | A (Ymin < 30%)
Cc1c(OCCCCC2CCN(Cc3nc4cc(C5CCC(=O)NC5=O)ccc4n3C)CC2)cccc1-c1ccc(N2CCc3cccc(C(=O)Nc4nc5ccccc5s4)c3C2)nc1C(=O)O (centres unmarked) [Compound 2002] | 10 to 100 | C (50% ≤ Ymin < 70%)
COc1c(NC(=O)CN2CCC3(CC2)CC(COc2ccc(-c4ccc(N5CCc6ccnc(C(=O)Nc7nc8ccccc8s7)c6C5)nc4C(=O)O)c(C(F)(F)F)c2)C3)ccc2c(C3CCC(=O)NC3=O)nn(C)c12 (centres unmarked) [Compound 181, 6-[8-(1,3-benzothiazol-2-ylcarbamoyl)-3,4-dihydro-1H-2,7-naphthyridin-2-yl]-3-[4-[[7-[2-[[3-(2,6-dioxo-3-piperidyl)-7-methoxy-1-methyl-indazol-6-yl]amino]-2-oxo-ethyl]-7-azaspiro[3.5]nonan-2-yl]methoxy]-2-(trifluoromethyl)phenyl]pyridine-2-carboxylic acid] | 10 to 100 | B (30% ≤ Ymin < 50%)
Cc1cc2c(C3CCC(=O)NC3=O)nn(C)c2cc1NC(=O)CN1CCC2(CC1)CC(COc1ccc(-c3ccc(N4CCc5cccc(C(=O)Nc6nc7ccccc7s6)c5C4)nc3C(=O)O)c(C)c1)C2 (centres unmarked) [Compound 125] | 10 to 100 | B (30% ≤ Ymin < 50%)
COc1c(NC(=O)CN2CC[C@H](CCCOc3cccc(-c4ccc(N5CCc6cccc(C(=O)Nc7nc8ccccc8s7)c6C5)nc4C(=O)O)c3C)C[C@H]2C)ccc2c(C3CCC(=O)NC3=O)nn(C)c12 (some centres unmarked) [Compound 208c] | 10 to 100 | B (30% ≤ Ymin < 50%)
Cc1c(OCCCC2CCN(CC(=O)Nc3ccc4c(C5CCC(=O)NC5=O)nn(C)c4n3)CC2)cccc1-c1ccc(N2CCc3cccc(C(=O)Nc4nc5ccccc5s4)c3C2)nc1C(=O)O (centres unmarked) [Compound 101] | 10 to 100 | C (50% ≤ Ymin < 70%)
Cc1cc(OC[C@H](C)CC2CCN(CC(=O)Nc3ccc4c(C5CCC(=O)NC5=O)nn(C)c4c3)CC2)ccc1-c1ccc(N2CCc3ccnc(C(=O)Nc4nc5ccccc5s4)c3C2)nc1C(=O)O (single isomer, unassigned) [Compound 140a] | < 10 | A (Ymin < 30%)
Cc1cc(OCCCC2CCN(Cc3nc4ccc(C5CCC(=O)NC5=O)cc4[nH]3)CC2)ccc1-c1ccc(N2CCc3cccc(C(=O)Nc4nc5ccccc5s4)c3C2)nc1C(=O)O (centres unmarked) [Compound 2003] | 10 to 100 | C (50% ≤ Ymin < 70%)
Cn1nc(C2CCC(=O)NC2=O)c2ccc(NC(=O)CN3CCC(CCCOc4cccc(-c5ccc(N6CCc7cccc(C(=O)Nc8nc9ccccc9s8)c7C6)nc5C(=O)O)c4F)CC3)cc21 (centres unmarked) [Compound 198] | 10 to 100 | B (30% ≤ Ymin < 50%)
Cn1nc(C2CCC(=O)NC2=O)c2ccc(NC(=O)CN3CCC4(CC3)CC(Oc3ccc(-c5ccc(N6CCc7ccnc(C(=O)Nc8nc9ccccc9s8)c7C6)nc5C(=O)O)c(C(F)(F)F)c3)C4)c(F)c21 (centres unmarked) [Compound 203] | 10 to 100 | B (30% ≤ Ymin < 50%)
C[C@H](COc1ccc(-c2ccc(N3CCc4cccc(C(=O)Nc5nc6ccccc6s5)c4C3)nc2C(=O)O)c(C(F)(F)F)c1)CC1CCN(CC(=O)Nc2ccc3c(C4CCC(=O)NC4=O)nn(C)c3c2)CC1 (single isomer, unassigned) [Compound 130b] | 10 to 100 | B (30% ≤ Ymin < 50%)
Cc1c(OCC2CC3(CCN(CC(=O)Nc4ccc5c(C6CCC(=O)NC6=O)nn(C)c5c4)CC3)C2)cccc1-c1ccc(N2CCc3ccnc(C(=O)Nc4nc5ccccc5s4)c3C2)nc1C(=O)O (centres unmarked) [Compound 134, 6-(8-(benzo[d]thiazol-2-ylcarbamoyl)-3,4-dihydro-2,7-naphthyridin-2(1H)-yl)-3-(3-((7-(2-((3-(2,6-dioxopiperidin-3-yl)-1-methyl-1H-indazol-6-yl)amino)-2-oxoethyl)-7-azaspiro[3.5]nonan-2-yl)methoxy)-2-methylphenyl)picolinic acid] | 10 to 100 | B (30% ≤ Ymin < 50%)
COc1c(NC(=O)CN2CC[C@H](CCCOc3ccc(-c4ccc(N5CCc6cccc(C(=O)Nc7nc8ccccc8s7)c6C5)nc4C(=O)O)c(C)c3)C[C@@H]2C)ccc2c(C3CCC(=O)NC3=O)nn(C)c12 (some centres unmarked) [Compound 210b] | 10 to 100 | A (Ymin < 30%)
Cc1cc(O[C@@H](C)CCC2CCN(CC(=O)Nc3ccc4c(C5CCC(=O)NC5=O)nn(C)c4n3)CC2)ccc1-c1ccc(N2CCc3cccc(C(=O)Nc4nc5ccccc5s4)c3C2)nc1C(=O)O (single isomer, unassigned) [Compound 225a] | 10 to 100 | B (30% ≤ Ymin < 50%)
Cc1c(OCCN2CCCC23CCN(CC(=O)Nc2ccc4c(C5CCC(=O)NC5=O)nn(C)c4c2)CC3)cccc1-c1ccc(N2CCc3cccc(C(=O)Nc4nc5ccccc5s4)c3C2)nc1C(=O)O (centres unmarked) [Compound 177] | < 10 | B (30% ≤ Ymin < 50%)
Cc1cc(OC[C@@H]2C[C@H]2C2CCN(CC(=O)Nc3ccc4c(C5CCC(=O)NC5=O)nn(C)c4c3)CC2)ccc1-c1ccc(N2CCc3cccc(C(=O)Nc4nc5ccccc5s4)c3C2)nc1C(=O)O (single isomer, unassigned) [Compound 1003b] | < 10 | B (30% ≤ Ymin < 50%)
Cc1cc(O[C@H](C)CCC2CCN(CC(=O)Nc3ccc4c(C5CCC(=O)NC5=O)nn(C)c4c3F)CC2)ccc1-c1ccc(N2CCc3cccc(C(=O)Nc4nc5ccccc5s4)c3C2)nc1C(=O)O (single isomer, unassigned) [Compound 224b] | 10 to 100 | A (Ymin < 30%)
C[C@H](CCC1CCN(CC(=O)Nc2ccc3c(C4CCC(=O)NC4=O)nn(C)c3c2)CC1)Oc1ccc(-c2ccc(N3CCc4cccc(C(=O)Nc5nc6ccccc6s5)c4C3)nc2C(=O)O)c(C(F)(F)F)c1 (single isomer, unassigned) [Compound 138b] | 10 to 100 | B (30% ≤ Ymin < 50%)
Cc1cc(OCCC2CC3(CCN(CC(=O)Nc4ccc5c(C6CCC(=O)NC6=O)nn(C)c5c4)CC3)C2)ccc1-c1ccc(N2CCc3cccc(C(=O)Nc4nc5ccccc5s4)c3C2)nc1C(=O)O (centres unmarked) [Compound 115, 6-(8-(benzo[d]thiazol-2-ylcarbamoyl)-3,4-dihydroisoquinolin-2(1H)-yl)-3-(4-(2-(7-(2-((3-(2,6-dioxopiperidin-3-yl)-1-methyl-1H-indazol-6-yl)amino)-2-oxoethyl)-7-azaspiro[3.5]nonan-2-yl)ethoxy)-2-methylphenyl)picolinic acid] | 10 to 100 | B (30% ≤ Ymin < 50%)
